± gives the expanded uncertainty stated by the source.
Assay: xn = mol fraction of the nth substance listed
Details: 101.3 kPa, Liquid

O=C1CCCN1 [2-pyrrolidinone] + O
Details	mass density [kg/m3]	speed of sound [m/s]	viscosity [mPa·s]
298.15 K, x2 = 0.0549	1106.53 ± 1.2	1637.8 ± 6.6	13.02 ± 0.25
298.15 K, x2 = 0.1506	1105.77 ± 1.2	1641.1 ± 6.6	12.29 ± 0.24
298.15 K, x2 = 0.2552	1104.43 ± 1.2	1662 ± 6.7	11.77 ± 0.23
298.15 K, x2 = 0.35	1102.41 ± 1.1	1691.1 ± 6.8	11.32 ± 0.22
298.15 K, x2 = 0.4496	1099.53 ± 1.1	1711.7 ± 6.9	10.63 ± 0.21
298.15 K, x2 = 0.5	1097.71 ± 1.1	1717.9 ± 6.9	10.13 ± 0.2
298.15 K, x2 = 0.5566	1095.2 ± 1.1	1723.5 ± 6.9	9.408 ± 0.19
298.15 K, x2 = 0.6422	1089.78 ± 1.1	1728.3 ± 6.9	8.014 ± 0.16
298.15 K, x2 = 0.7532	1077.07 ± 0.98	1730.9 ± 6.9	5.772 ± 0.13
298.15 K, x2 = 0.8516	1056.03 ± 0.85	1715.4 ± 6.9	3.645 ± 0.084
298.15 K, x2 = 0.8714	1050.24 ± 0.81	1704.6 ± 6.8	3.231 ± 0.075
298.15 K, x2 = 0.8856	1045.71 ± 0.79	1694.1 ± 6.8	2.94 ± 0.068
298.15 K, x2 = 0.9	1040.8 ± 0.76	1681 ± 6.8	2.651 ± 0.062
298.15 K, x2 = 0.9249	1031.48 ± 0.7	1650.9 ± 6.7	2.171 ± 0.051
298.15 K, x2 = 0.9369	1026.61 ± 0.67	1632.7 ± 6.6	1.948 ± 0.046
298.15 K, x2 = 0.9526	1019.88 ± 0.62	1605.5 ± 6.5	1.667 ± 0.04
298.15 K, x2 = 0.9651	1014.21 ± 0.59	1580.7 ± 6.4	1.451 ± 0.035
298.15 K, x2 = 0.9748	1009.64 ± 0.56	1559.8 ± 6.4	1.29 ± 0.032
298.15 K, x2 = 0.9906	1001.87 ± 0.51	1522.6 ± 6.3	1.036 ± 0.026
308.15 K, x2 = 0.0549	1098.69 ± 1.1	1609.2 ± 6.5	8.624 ± 0.18
308.15 K, x2 = 0.1506	1097.66 ± 1.1	1618.7 ± 6.6	8.126 ± 0.17
308.15 K, x2 = 0.2552	1095.98 ± 1.1	1635.9 ± 6.6	7.761 ± 0.16
308.15 K, x2 = 0.35	1093.81 ± 1.1	1657.3 ± 6.7	7.452 ± 0.16
308.15 K, x2 = 0.4496	1090.94 ± 1.1	1679 ± 6.8	6.988 ± 0.15
308.15 K, x2 = 0.5	1089.17 ± 1.1	1688.1 ± 6.8	6.657 ± 0.14
308.15 K, x2 = 0.5566	1086.76 ± 1	1696.7 ± 6.8	6.188 ± 0.14
308.15 K, x2 = 0.6422	1081.57 ± 1	1706.4 ± 6.8	5.289 ± 0.12
308.15 K, x2 = 0.7532	1069.46 ± 0.93	1711.6 ± 6.9	3.853 ± 0.09
308.15 K, x2 = 0.8516	1049.57 ± 0.81	1695.1 ± 6.8	2.489 ± 0.059
308.15 K, x2 = 0.8714	1044.11 ± 0.78	1686.1 ± 6.8	2.224 ± 0.053
308.15 K, x2 = 0.8856	1039.85 ± 0.75	1677.9 ± 6.8	2.038 ± 0.049
308.15 K, x2 = 0.9	1035.22 ± 0.72	1667.7 ± 6.7	1.852 ± 0.045
308.15 K, x2 = 0.9249	1026.46 ± 0.67	1645 ± 6.6	1.544 ± 0.038
308.15 K, x2 = 0.9369	1021.88 ± 0.64	1631.3 ± 6.6	1.401 ± 0.034
308.15 K, x2 = 0.9526	1015.55 ± 0.6	1610.1 ± 6.5	1.22 ± 0.03
308.15 K, x2 = 0.9651	1010.22 ± 0.56	1590.4 ± 6.5	1.082 ± 0.027
308.15 K, x2 = 0.9748	1005.91 ± 0.54	1573.1 ± 6.4	0.977 ± 0.025
308.15 K, x2 = 0.9906	995.75 ± 5	1540.9 ± 6.3	0.812 ± 0.021
318.15 K, x2 = 0.0549	1090.54 ± 1.1	1570 ± 6.4	6.104 ± 0.13
318.15 K, x2 = 0.1506	1089.51 ± 1.1	1576.7 ± 6.4	5.778 ± 0.13
318.15 K, x2 = 0.2552	1087.87 ± 1.1	1589.9 ± 6.5	5.543 ± 0.12
318.15 K, x2 = 0.35	1085.69 ± 1	–	5.344 ± 0.12
318.15 K, x2 = 0.4496	1082.75 ± 1	–	5.034 ± 0.11
318.15 K, x2 = 0.5	1080.94 ± 1	–	4.807 ± 0.11
318.15 K, x2 = 0.5566	1078.51 ± 0.99	1650.3 ± 6.7	4.48 ± 0.1
318.15 K, x2 = 0.6422	1073.38 ± 0.96	1663.9 ± 6.7	3.845 ± 0.088
318.15 K, x2 = 0.7532	1061.72 ± 0.89	1678.2 ± 6.8	2.823 ± 0.066
318.15 K, x2 = 0.8516	1042.81 ± 0.77	1675 ± 6.7	1.852 ± 0.044
318.15 K, x2 = 0.8714	1037.63 ± 0.73	1669.5 ± 6.7	1.663 ± 0.04
318.15 K, x2 = 0.8856	1033.59 ± 0.71	1664 ± 6.7	1.53 ± 0.037
318.15 K, x2 = 0.9	1029.21 ± 0.68	1656.8 ± 6.7	1.398 ± 0.034
318.15 K, x2 = 0.9249	1020.9 ± 0.63	1639.6 ± 6.6	1.179 ± 0.029
318.15 K, x2 = 0.9369	1016.57 ± 0.6	1628.8 ± 6.6	1.078 ± 0.027
318.15 K, x2 = 0.9526	1010.57 ± 0.56	1611.8 ± 6.5	0.95 ± 0.024
318.15 K, x2 = 0.9651	1005.52 ± 0.53	1595.5 ± 6.5	0.851 ± 0.022
318.15 K, x2 = 0.9748	1001.44 ± 0.51	1581.1 ± 6.4	0.778 ± 0.02
318.15 K, x2 = 0.9906	995.2 ± 0.53	1553.7 ± 6.4	0.662 ± 0.018
328.15 K, x2 = 0.0549	1082.33 ± 1	1556 ± 6.4	4.562 ± 0.1
328.15 K, x2 = 0.1506	1081.2 ± 1	1562.4 ± 6.4	4.323 ± 0.098
328.15 K, x2 = 0.2552	1079.48 ± 1	1574.8 ± 6.4	4.147 ± 0.094
328.15 K, x2 = 0.35	1077.27 ± 0.98	1592.4 ± 6.5	4 ± 0.091
328.15 K, x2 = 0.4496	1074.29 ± 0.97	1612.3 ± 6.6	3.772 ± 0.086
328.15 K, x2 = 0.5	1072.48 ± 0.95	1621.7 ± 6.6	3.605 ± 0.083
328.15 K, x2 = 0.5566	1070.03 ± 0.94	1631.3 ± 6.6	3.364 ± 0.077
328.15 K, x2 = 0.6422	1064.97 ± 0.91	1644.8 ± 6.7	2.895 ± 0.067
328.15 K, x2 = 0.7532	1053.71 ± 0.84	1659.9 ± 6.7	2.143 ± 0.05
328.15 K, x2 = 0.8516	1035.74 ± 0.72	1660.2 ± 6.7	1.427 ± 0.035
328.15 K, x2 = 0.8714	1030.84 ± 0.69	1656.2 ± 6.7	1.288 ± 0.032
328.15 K, x2 = 0.8856	1027.01 ± 0.67	1652 ± 6.7	1.191 ± 0.029
328.15 K, x2 = 0.9	1022.85 ± 0.64	1646.3 ± 6.7	1.095 ± 0.027
328.15 K, x2 = 0.9249	1014.98 ± 0.59	1632.4 ± 6.6	0.932 ± 0.024
328.15 K, x2 = 0.9369	1010.86 ± 0.57	1623.5 ± 6.6	0.858 ± 0.022
328.15 K, x2 = 0.9526	1005.16 ± 0.53	1609.4 ± 6.5	0.764 ± 0.02
328.15 K, x2 = 0.9651	1000.35 ± 0.5	1595.8 ± 6.5	0.69 ± 0.018
328.15 K, x2 = 0.9748	996.455 ± 0.52	1583.8 ± 6.5	0.637 ± 0.017
328.15 K, x2 = 0.9906	989.833 ± 0.56	1560.8 ± 6.4	0.551 ± 0.015
338.15 K, x2 = 0.0549	1070.16 ± 0.94	1526.1 ± 6.3	3.37 ± 0.079
338.15 K, x2 = 0.1506	1069.05 ± 0.94	1532.8 ± 6.3	3.198 ± 0.075
338.15 K, x2 = 0.2552	1067.4 ± 0.93	1545 ± 6.3	3.076 ± 0.072
338.15 K, x2 = 0.35	1065.29 ± 0.91	1562 ± 6.4	2.973 ± 0.07
338.15 K, x2 = 0.4496	1062.48 ± 0.89	1581.5 ± 6.5	2.81 ± 0.066
338.15 K, x2 = 0.5	1060.76 ± 0.88	1590.8 ± 6.5	2.69 ± 0.063
338.15 K, x2 = 0.5566	1058.45 ± 0.87	1600.7 ± 6.5	2.516 ± 0.06
338.15 K, x2 = 0.6422	1053.71 ± 0.84	1615.2 ± 6.6	2.177 ± 0.052
338.15 K, x2 = 0.7532	1043.28 ± 0.77	1632.8 ± 6.6	1.63 ± 0.04
338.15 K, x2 = 0.8516	1026.75 ± 0.67	1638.6 ± 6.6	1.11 ± 0.028
338.15 K, x2 = 0.8714	1022.24 ± 0.64	1636.4 ± 6.6	1.009 ± 0.025
338.15 K, x2 = 0.8856	1018.73 ± 0.62	1633.7 ± 6.6	0.938 ± 0.024
338.15 K, x2 = 0.9	1014.9 ± 0.59	1629.8 ± 6.6	0.867 ± 0.022
338.15 K, x2 = 0.9249	1007.65 ± 0.55	1619.7 ± 6.6	0.749 ± 0.02
338.15 K, x2 = 0.9369	1003.86 ± 0.53	1613 ± 6.5	0.695 ± 0.018
338.15 K, x2 = 0.9526	998.592 ± 0.51	1602.2 ± 6.5	0.627 ± 0.017
338.15 K, x2 = 0.9651	994.147 ± 0.54	1591.6 ± 6.5	0.574 ± 0.016
338.15 K, x2 = 0.9748	990.543 ± 0.56	1582 ± 6.5	0.535 ± 0.015
338.15 K, x2 = 0.9906	984.343 ± 0.6	1563.7 ± 6.4	0.473 ± 0.013

Source: the NIST ThermoML archive (doi:10.1021/je0340809)
